Results from US11820762B2, “Compounds as potential therapeutic agents targeting various neurodegenerative diseases” (The Hong Kong University of Science and Technology, priority 2020, dated 2023).

What was measured:
[1] = test system: differentiated HT22 cells; test: cells; format: cell-based; conditions: for neuroprotective activity compared with cA: comparison of analogs; for EC50: Mus musculus, HT-22, differentiated HT22 cells pre-treated with 5 mM L-glutamate, cell viability
Description: Cytotoxicity of compounds was tested by MTT assay. Cells were grown in DMEM (Gibco) with 10% FBS and 1% penicillin-streptomycin at 37° C. with 5% CO2. In total, 5×10^3 cells were seeded in each well of 96-well plates and cultured for 24 hours. Then cells were treated with different concentrations of compounds dissolved in DMSO for another 24 hours. After incubating with 20 μl of MTT (5 mg/mL) for each well at 37° C. for another four hours, 100 μl of DMSO was added to dissolve formazan. Absorbance was measured using a Multiskan™ FC microplate photometer at 570 nm. IC50 data were analyzed with GraphPad Prism software.
Cultured HT22 cells were differentiated by applying 10 μM retinoic acid (Sigma-Aldrich, R2625-50MG) and 500 μM cAMP (Sigma-Aldrich, A6885) in DEME medium supplied with 0.5% FBS (differentiation medium) and incubated 48 hours before adding other treatments. 5 mM L-glutamate acid was applied to the original differentiation medium for further 24-hours incubation. Cell viability was measured by MTT assay described above.
In the C9orf72 associated ALS/FTD, the G4C2 HRE make motor neurons more vulnerable to aberrant neuron excitation^43. Meanwhile, the hyperactivation of glutamate receptors drives a toxic level of neuronal activity, promoting the non-ATG (RAN) translation of G4C2 repeat-associated DPR proteins^44, leading to further toxicity of motor neurons. Thus, we would like to test our compounds in a glutamate (E)-induced excitotoxicity cell model.

Tau-R3 = molecular target: T1, Tau-R3 (Homo sapiens, UniProt P10636); test: Thioflavin T (ThT) fluorescent tau-R3 aggregation assay; format: biochemical; conditions: 20 μM Tau-R3, 10 μM heparin, read-out: IC50 of Tau-R3 aggregation inhibition (converted)
T1 construct: Tau-R3 protein was synthesized and purchased from ChinaPeptides Co., Ltd; purchased ChinaPeptides Co., Ltd; host or cells: chemical synthesis
Description: Tau-R3 protein was synthesized and purchased from ChinaPeptides Co., Ltd. ThT (ab120751, 1 mM) solution was freshly prepared in 50 mM Tris-HCl buffer (pH 7.4) and passed through a 0.45 μm pore size filter to remove insoluble particles before use. Tau-R3 (20 μM) was incubated with 20 μM ThT and 10 μM heparin in the presence or absence of cA, cB and cC. Samples in 200 μL were added to 96-well plates and incubated at 37° C. for 24-48 hours. ThT fluorescence intensity was recorded using a microplate reader with 440/480 nm excitation/emission filters at different time points. Non-linear regression analysis was performed to fit the boltzmann sigmoidal.
In the C9orf72 ALS/FTD, there is a strong genetic association between the microtubule-binding protein, tau and the G4C2 HRE. […] The co-expression of Tau and G4C2 repeats produces a synergistic deterioration of the neurodegeneration phenotype of ALS/FTD^46. Considering the tight correlation of Tau aggregation with the ALS/FTD pathogenesis, we tested our compounds in a non-cell-based Tau-R3 aggregation inhibition assay. […] Moreover, we conducted high magnification TEM imaging to characterize the morphological changes of Tau-R3 fibrils with cA, cB and cC treatments. […] Furthermore, the misfolding of tau protein into filaments in neurons of the central nervous system can be found in various neurodegenerative diseases, such as Alzheimer's disease et al. Therefore, the inhibition on tau aggregation represented a potential of cA and its derivatives in targeting multiple other neurodegenerative diseases more than ALS.

[2] = Parallel artificial membrane permeability assay (PAMPA); format: in vitro ADME; conditions: 500 μM; 37° C., 18 hours
Description: 500 μL of 500 μM test compound and 200 μM Equilibrium Standards for each test compound were prepared. 5 μL DMSO plus 245 μL PBS served as blank control. Firstly, 300 μL PBS was added to each well in the acceptor plate. With the donor plate in its tray, 5 μL 4% Lecithin in Dodecane was added directly to the well membranes of the donor plate. 200 μL of each 500 μM test compound was added to duplicate wells of the donor plate. The donor plate was carefully placed into the acceptor plate wells and incubated at 37° C. for 18 hours. Then the liquid in acceptor plate wells was collected as Acceptor Solution for analysis. Absorbance spectrum from 200 nm to 500 nm in 10 nm intervals was read to determine the peak absorbance of test compounds and blank control.
In addition, we also tested the permeability on live cells. Neuro2a cells treated with cA at different concentrations (10 μg/ml, 20 μg/ml) for different incubation time (24 h, 48 h) were lysed. Supernatants of cell lysates were collected and analyzed by UPLC-MS. Meanwhile, cell media from different treatment groups were used as control. […] In contrast, the intensity of cA signal was the same in the three corresponding cell media groups (FIG. 25, 4-6).

[3] = test system: DNA (G4C2)4 (SEQ ID NO: 5) G4; test: 1D 1H-NMR titration of DNA (G4C2)4 G4; format: binding; conditions: for binding to DNA (G4C2)4 G4 by NMR titration: G4:compound ratio 1:1 to 1:10
Description: (§1) Single […] were purchased from Integrated DNA Technologies (IDT) and Takara. Single-strand DNA/RNA sample at 100 μM was then annealed by heating up to 95° C. for 15 mins, and slowly cooled to room temperature in the annealing buffer (70 mM KCl, 20 mM potassium phosphate (pH 7.0)) for overnight. The final NMR samples contained 0.1 mM DNA or RNA in 70 mM KCl and 20 mM potassium phosphate buffer (pH 7.0).
(§2) The 1D ^1H-NMR spectra were performed at 25° C. All compounds were dissolved in isotope-labeled d6-DMSO (Sigma-Aldrich) at about 50 mM concentration, working as stock solutions. To avoid chemical shift changes of DNA/RNA G4 resulted from d6-DMSO addition, […] d6-DMSO was added into 500 μL of 0.1 mM DNA/RNA G4 solution in the NMR buffer (20 mM potassium phosphate buffer and 70 mM KCl, pH 7.0, 10% D2O) and then 1D ^1H-NMR spectrum was recorded as a reference. During NMR titration experiments of adding each compound into the DNA/RNA G4 solution, the maximal volume of 10 μL of each compound in d6-DMSO solution was regarded as a final data point.
We next confirmed the binding of cA and DNA (G4C2)4 (SEQ ID NO: 5) G4 by NMR titration experiments.

[4] = test system: human telomeric variant htel21_T18 G4; test: 1D 1H-NMR titration of human telomeric variant htel21_T18 G4; format: binding; conditions: cA at 1:10
Description: as §1, §2
(§3) In addition to the four-repeat G4C2 DNA G4, there are parallel and hybrid G4 conformations formed simultaneously by the two-repeat G4C2 DNA^38,39. […]

[5] = test system: RNA (G4C2)2 (SEQ ID NO: 8) G4; test: 1D 1H-NMR titration of RNA (G4C2)2 G4; format: binding; conditions: ratios 1:3, 1:5, 1:10
Description: as §1
as §2, with “point. […]” for “point.”

[6] = test system: DNA (G4C2)2 (SEQ ID NO: 4) G4; test: 1D 1H-NMR titration of DNA (G4C2)2 G4; format: binding; conditions: cA at 1:1, 1:5, 1:10
Description: as §1, §2, §3

RRM domain of hnRNP H = molecular target: T2, RRM domain of hnRNP H (Homo sapiens, UniProt P31943); test: 1H-15N HSQC NMR titration of hnRNP H RRM domain; format: binding; conditions: ratios 1:5 and 1:10
T2 construct: HSQC spectra of RRM1/2 of hnRNP H; hexahistidine (cleaved yes); made in house; host or cells: Escherichia coli BL21(DE3), pET-28a(+)
T2 sequence (P31943 1-194 limits assumed): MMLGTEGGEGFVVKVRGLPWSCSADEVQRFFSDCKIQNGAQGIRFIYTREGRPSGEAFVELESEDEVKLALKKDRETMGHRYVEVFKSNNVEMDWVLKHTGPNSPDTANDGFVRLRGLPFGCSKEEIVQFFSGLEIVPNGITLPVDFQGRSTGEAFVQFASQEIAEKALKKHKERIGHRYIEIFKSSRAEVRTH
Description: The coding sequence of the RRM domain of hnRNP H/F, or human Orc6 was inserted into the expression vector pET-28a(+) (Novagen). Protein was expressed in Escherichia coli BL21(DE3) at 37° C. for 5 hours. Cell lysates were subject to affinity purification with nickel-nitrilotriacetic acid resin (Qiagen) followed by cleavage of hexahistidine tag with Protease 3C enzyme. Products were further purified on a Superdex 75 column (GE Healthcare). For NMR studies, uniformly ^15N labeled protein was expressed and purified as described above, except for cells grown in M9 medium containing 100% ^15N enriched ammonium chloride (Cambridge Isotopes) and d-glucose.
Titration experiments were performed by recording a series of 2D ^15N-HSQC spectra on uniformly ^15N-labeled RRM domain (˜0.1 mM) in the presence of different amounts of DNA/RNA or compounds at 25° C. Protein samples and stock solutions of DNA/RNA were all prepared in 20 mM potassium phosphate buffer and 70 mM KCl, pH 7.0, 10% D2O. All compounds were dissolved in isotope-labeled d6-DMSO (Sigma-Aldrich) at about 50 mM concentration, working as stock solutions. To avoid chemical shift changes of protein samples resulted from d6-DMSO addition, 10 μL d6-DMSO was added into 500 μL of 0.1 mM protein solution in the NMR buffer (20 mM potassium phosphate buffer and 70 mM KCl, pH 7.0, 10% D2O) and then the 2D HSQC was recorded as a reference.
In this scenario, specific RNA-binding proteins (RBPs), like hnRNP H, are recruited by the RNA foci, resulting in RNA processing impairment and further cytotoxicity to the central nervous system^30,36,37. Therefore, we tested the binding possibility of cA with the RRM domain of hnRNP H by NMR titration. […] Intriguingly, the DNA (G4C2)4 (SEQ ID NO: 5) G4 was also shown a potent binding affinity to the RRM domain of hnRNP H (FIG. 4C).

T1 sequence (P10636 623-653 limits assumed): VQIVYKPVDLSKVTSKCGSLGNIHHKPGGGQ

Row | Structure (SMILES) | cytotoxicity (structure-activity summary) [1] | neuroprotective activity compared with cA [1] | IC50 (Tau-R3) | EC50 [1] | binding to DNA (G4C2)4 G4 by NMR titration [3] | other results
1 | COc1c2c(c(OC)c3c(=O)c4cccc(O[C@@H]5O[C@H](C(=O)O)[C@@H](O)[C@H](O)[C@H]5O)c4oc13)-c1c(cc(CC(C)=O)c(C(=O)O)c1O)CC2 [cE, chrexanthomycin E] | showed cytotoxicity | worse than cA | 6.13 µM |  |  | 
2 | COCCOC(=O)C1=C(C)NC(C)=C(C(=O)OC(C)C)C1c1cccc([N+](=O)[O-])c1 (stereo not drawn) [nimodipine, reference compound] |  |  |  | 1.14 µM |  | 
3 | CC12CC3CC(C)(C1)CC(N)(C3)C2 [memantine, reference compound] |  |  |  | 23.9 µM |  | 
4 | N=C(N)c1ccc(-c2ccc(-c3ccc(-c4ccc(C(=N)N)cn4)o3)o2)nc1 [DB1246, reference compound] |  |  |  |  | strongly bound | permeability (PAMPA) [2]: much worse permeability than cA, cB, cC; binding to htel21_T18 G4 by NMR titration [4]: strongly bound; binding to RNA (G4C2)2 G4 by NMR titration [5]: strongly bound; binding to DNA (G4C2)2 G4 by NMR titration [6]: strongly bound
5 | COc1c2c(c(O)c3c(=O)c4cccc(O[C@@H]5O[C@H](C(=O)O)[C@@H](O)[C@H](O)[C@H]5O)c4oc13)-c1c(cc(CC(C)=O)c(C(=O)O)c1O)CC2 [cD, chrexanthomycin D] | showed cytotoxicity | worse than cA | 4.75 µM | 53.6 µM |  | 
6 | C[C@@]1(O)Cc2cc3c(c(O)c2C(=O)O1)-c1c(c(O)c(O)c2c(=O)c4cccc(O[C@@H]5OC(C(=O)O)=C[C@H](O)[C@H]5O)c4oc12)CC3 [cF, chrexanthomycin F] |  | worse than cA |  |  | proved to bind | binding affinity order according to NMR titration ([3]; DNA (G4C2)4 G-quadruplex and hnRNP H, FIGS. 3C-3E): cC>cA>cB>cF; binding to RRM domain of hnRNP H by NMR titration (RRM domain of hnRNP H): much weaker bindings
